Results from patent USRE46792E1, “Oxazole compound and pharmaceutical composition” (Otsuka Pharmaceutical Co., Ltd., priority 2005, dated 2018).

Each compound was assayed against human PDE4D3 (PDE4D) (Homo sapiens (Human), UniProt Q08499) (assay: Phosphodiesterase (PDE)4 inhibitory activity evaluation test ([3H]cAMP hydrolysis by PDE4D enzyme solution)). Settings: recombinant human PDE4D3 expressed in COS-7 cells; [3H]cAMP substrate; 10 min at 30° C.; 2% DMSO.
Assay type: biochemical
Description: Phosphodiesterase (PDE)4 Inhibitory Activity Evaluation Test
(1) Large Scale Plasmid Preparation
Plasmid containing genes (HPDE4D) coding for human PDE4D3 cDNA (stored in Otsuka America Pharmaceutical, Inc., Maryland Research Laboratories) was transformed in E. coli, cultured on a large scale, and purified using an EndoFree™ Plasmid Maxi Kit (Qiagen).
(2) Abundant Expression and Purification of PDE4D
COS-7 cells derived from African green monkey kidneys were passage cultured in D-MEM media containing 100 units/ml penicillin, 100 μg/ml streptomycin, and 10% FBS. The cells were transfected with the plasmid prepared in (1) above using Lipofectamine™ 2000 (hereinafter referred to as “LF2000”, Invitrogen), following the manufacturer's protocol. The COS-7 cells were inoculated in a 10 cm culture dish on the previous day so as to be 90% confluent on the day of transfection. Culture dishes each containing a plasmid solution (solution A) in which 24 μg of plasmid was diluted in 1.5 ml Opti-MEM I Reduced Serum Medium (Invitrogen) and an LF2000 solution (solution B) in which 60 μl of LF2000 was diluted in 1.5 ml Opti-MEM I Reduced Serum Medium were separately allowed to stand for 5 minutes at room temperature. Solutions A and B were then mixed and the mixture was allowed to stand for 20 minutes at room temperature. The mixture was added to the cultured cells, and incubated at 37° C. (5% CO2) overnight. On the following day, the medium was replaced, and the mixture was further incubated overnight to harvest the cells in the following manner. The cells were washed with PBS (Sigma) once, and 10 ml of a Trypsin-EDTA solution (Sigma) was added to each culture dish. After the solution was distributed to each of the culture dishes, the cells were detached, and the dishes were allowed to stand for about 5 minutes at 37° C. The detached cells from the dishes were suspended in media, collected into centrifuge tubes, and centrifuged at 1200 rpm for 5 minutes at 4° C., and supernatants were removed. The cells were further washed with PBS, and stored at −80° C. KHEM buffer (100 mM Hepes, 50 mM KCl, 10 mM EGTA, 1.92 mM MgCl2, pH 7.4) containing 1 mM DTT, 1 μg/ml antipain, 1 μg/ml aprotinin, 1 μg/ml leupeptin, 1 μg/ml pepstatin A, 157 μg/ml benzamidine, and 120 μg/ml Pefabloc SC was added to the stored cells, and the contents were moved to a glass homogenizer to be homogenized on ice. The cell suspension was centrifuged at 1000 rpm for 5 minutes at 4° C., and the supernatant was further centrifuged at 14000 rpm for one hour. After centrifugation, the supernatant was dispensed into new tubes as PDE4D enzyme solutions, and stored in a deep freezer.
(3) Determination on Dilution Ratio of PDE4D Enzyme Solutions
The PDE4D enzyme solutions prepared in (2) above were dissolved in 20 mM Tris-HCl solution (pH 7.4) to give 10-, 25-, 50-, 100-, 200-, 400-, and 800-fold dilutions of the enzyme solutions. PDE4D activities were measured according to (4) below. The percentage of catalyzed cAMP to total cAMP was calculated, and such a dilution, in which the percentage was between 10% and 30%, was adopted in the inhibitory study below.
(4) Measurement of PDE4D Inhibitory Activity
Necessary amounts of test compounds were weighed, and 100% dimethylsulfoxide (DMSO) was added thereto to adjust the concentration to 10 mM. The solutions were stored in a freezer as stock solutions of each test compound. After being thawed when required, the solutions were diluted 20-fold with 100% DMSO to give a 500 μM concentration. Further, 10-fold serial dilutions were made with 100% DMSO to prepare test compounds of different concentrations. 2 μl of solutions containing one of each of the test compound were separately added into 1.2 ml tubes in which 23 μl of 20 mM Tris-HCl (pH 7.4) had been placed beforehand. […]

human PDE4D3 (PDE4D), sequence (Q08499 other isoform, or with tags, fused parts or gaps): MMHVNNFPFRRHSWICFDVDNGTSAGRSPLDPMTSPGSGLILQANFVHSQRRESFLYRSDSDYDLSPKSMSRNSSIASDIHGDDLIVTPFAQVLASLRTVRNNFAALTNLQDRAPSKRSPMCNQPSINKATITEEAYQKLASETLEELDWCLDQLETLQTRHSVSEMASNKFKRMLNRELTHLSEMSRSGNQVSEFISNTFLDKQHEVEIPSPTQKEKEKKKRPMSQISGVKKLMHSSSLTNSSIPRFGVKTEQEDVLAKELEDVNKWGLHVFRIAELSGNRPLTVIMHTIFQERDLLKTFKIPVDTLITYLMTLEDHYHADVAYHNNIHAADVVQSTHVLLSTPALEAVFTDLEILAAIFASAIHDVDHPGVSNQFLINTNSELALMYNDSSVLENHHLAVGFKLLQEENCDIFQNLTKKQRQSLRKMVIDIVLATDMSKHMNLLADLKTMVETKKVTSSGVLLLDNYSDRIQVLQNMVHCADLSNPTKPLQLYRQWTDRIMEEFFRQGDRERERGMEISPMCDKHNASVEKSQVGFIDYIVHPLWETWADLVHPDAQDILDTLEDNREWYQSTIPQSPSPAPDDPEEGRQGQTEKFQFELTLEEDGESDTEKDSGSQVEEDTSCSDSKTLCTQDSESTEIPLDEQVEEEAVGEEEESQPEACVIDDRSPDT

| SMILES | IC50 |
| --- | --- |
| C=CCOc1cc(-c2nc(CNC(=O)c3ccccc3OCC)co2)ccc1OC(F)F [Example 351, N-[2-(3-allyloxy-4-difluoromethoxyphenyl)oxazol-4-ylmethyl]-2-ethoxybenzamide] | < 50 nM |
| C=CCOc1cc(-c2nc(CNC(=O)c3ncccc3C)co2)ccc1OC(F)F [Example 339, N-[2-(3-allyloxy-4-difluoromethoxyphenyl)oxazol-4-ylmethyl]-3-methylpicolinamide] | < 50 nM |
| COc1ccc(-c2nc(CNC(=O)c3ncccc3C)co2)cc1OC(C)C [Example 384, N-[2-(4-methoxy-3-isopropoxyphenyl)oxazol-4-ylmethyl]-3-methylpicolinamide] | < 50 nM |
| C=CCCOc1cc(-c2nc(CCC(=O)c3ccccc3OCC)co2)ccc1OC(F)F [Example 337, 3-[2-(3-but-3-enyloxy-4-difluoromethoxyphenyl)oxazol-4-yl]-1-(2-ethoxyphenyl)propan-1-one] | < 50 nM |
| CCOc1ccccc1C(=O)NCc1coc(-c2ccc(OC)c(OCC(C)C)c2)n1 [Example 14, N-[2-(3-isobutoxy-4-methoxyphenyl)oxazol-4-ylmethyl]-2-ethoxy benzamide] | < 50 nM |
| CCOc1cccnc1C(=O)CCc1coc(-c2ccc(OC)c(OC3CCCC3)c2)n1 [Example 132, 3-[2-(3-cyclopentyloxy-4-methoxyphenyl)oxazol-4-yl]-1-(3-ethoxypyridin-2-yl)propan-1-one] | < 50 nM |
| COc1ccc(-c2nc(CCC(=O)c3ncccc3C)co2)cc1OCCC1CC1 [Example 153, 3-{2-[3-(2-cyclopropylethoxy)-4-methoxyphenyl]oxazol-4-yl}-1-(3-methylpyridin-2-yl)propan-1-one] | < 50 nM |
| CCOc1ccccc1C(=O)CCc1coc(-c2ccc(OC)c(OCC3CC3)c2)n1 [Example 102, 3-[2-(3-cycropropylmethoxy-4-methoxyphenyl)oxazol-4-yl]-1-(2-ethoxyphenyl)propan-1-one] | < 50 nM |
| C=CCOc1cc(-c2nc(CCC(=O)c3ccccc3OCC=C)co2)ccc1OC [Example 166, 3-[2-(3-allyloxy-4-methoxyphenyl)oxazol-4-yl]-1-(2-allyloxyphenyl)propan-1-one] | < 50 nM |
| COc1ccc(-c2nc(CNC(=O)c3ncccc3C)co2)cc1OCC(F)(F)F [Example 19, N-{2-[4-methoxy-3-(2,2,2-trifluoroethoxy)phenyl]oxazol-4-ylmethyl}-3-methylpicolinamide] | < 50 nM |
| CCCOc1cc(-c2nc(CNC(=O)c3ccccc3OCC)co2)ccc1OC(F)F [Example 350, N-[2-(4-difluoromethoxy-3-propoxyphenyl)oxazol-4-ylmethyl]-2-ethoxybenzamide] | < 50 nM |
| CCOc1cc(-c2nc(CCC(=O)c3ccc(F)cc3OCC)co2)ccc1OC [Example 304, 1-(2-ethoxy-4-fluorophenyl)-3-[2-(3-ethoxy-4-methoxyphenyl)oxazol-4-yl]propan-1-one] | < 50 nM |
| COc1ccc(-c2nc(CCC(=O)c3ccccc3OC)co2)cc1OC(C)C [Example 169, 3-[2-(3-isopropoxy-4-methoxyphenyl)oxazol-4-yl]-1-(2-methoxyphenyl)propan-1-one] | < 50 nM |
| C=CCCOc1cc(-c2nc(CCC(=O)c3ncccc3C)co2)ccc1OC [Example 146, 3-[2-(3-(3-butenyloxy)-4-methoxyphenyl)oxazol-4-yl]-1-(3-methylpyridin-2-yl)propan-1-one] | < 50 nM |
| CCOc1ccc(-c2nc(CCC(=O)c3ncccc3C)co2)cc1OCC [Example 181, 3-[2-(3,4-diethoxyphenyl)oxazol-4-yl]-1-(3-methylpyridin-2-yl)propan-1-one] | < 50 nM |
| CCCOc1cc(-c2nc(CCC(=O)c3ncccc3C)co2)ccc1OC(F)F [Example 329, 3-[2-(4-difluoromethoxy-3-propoxyphenyl)oxazol-4-yl]-1-(3-methylpyridin-2-yl)propan-1-one] | < 50 nM |
| COc1ccc(-c2nc(CNC(=O)c3ccccc3OC)co2)cc1OC1CCCC1 [Example 35, N-[2-(3-cyclopentyloxy-4-methoxyphenyl)oxazol-4-ylmethyl]-2-methoxybenzamide] | < 50 nM |
| CCOc1ccccc1C(=O)CCc1coc(-c2ccc(OC)c(OCCF)c2)n1 [Example 315, 1-(2-ethoxyphenyl)-3-{2-[3-(2-fluoroethoxy)-4-methoxyphenyl]oxazol-4-yl}propan-1-one] | < 50 nM |
| Cc1cccnc1C(=O)NCc1coc(-c2ccc(OC(F)F)c(OC(C)C)c2)n1 [Example 341, N-[2-(4-difluoromethoxy-3-isopropoxyphenyl)oxazol-4-ylmethyl]-3-methylpicolinamide] | < 50 nM |
| CCOc1cc(-c2nc(CCC(=O)c3ccc(F)cc3OC(C)C)co2)ccc1OC [Example 305, 3-[2-(3-ethoxy-4-methoxyphenyl)oxazol-4-yl]-1-(4-fluoro-2-isopropoxyphenyl)propan-1-one] | < 50 nM |
| Cc1cccnc1C(=O)NCc1coc(-c2ccc(OC(F)F)c(OCC(C)C)c2)n1 [Example 344, N-[2-(4-difluoromethoxy-3-isobutoxyphenyl)oxazol-4-ylmethyl]-3-methylpicolinamide] | < 50 nM |
| COc1ccc(-c2nc(CNC(=O)c3ccccc3SC)co2)cc1OCC1CC1 [Example 44, N-[2-(3-cyclopropylmethoxy-4-methoxyphenyl)oxazol-4-ylmethyl]-2-methylsulfanylbenzamide] | < 50 nM |
| COc1ccc(-c2nc(CCC(=O)c3ccccc3OCC(F)F)co2)cc1OCC1CC1 [Example 283, 3-[2-(3-cyclopropylmethoxy-4-methoxyphenyl)oxazol-4-yl]-1-[2-(2,2-difluoroethoxy)phenyl]propan-1-one] | < 50 nM |
| CCOc1cc(-c2nc(CCC(=O)c3ccccc3OC(F)F)co2)ccc1OC [Example 274, 1-(2-difluoromethoxyphenyl)-3-[2-(3-ethoxy-4-methoxyphenyl)oxazol-4-yl]propan-1-one] | < 50 nM |
| COc1ccc(-c2nc(CCC(=O)c3ncccc3C)co2)cc1OCC(F)(F)F [Example 155, 3-{2-[4-methoxy-3-(2,2,2-trifluoroethoxy)phenyl]oxazol-4-yl}-1-(3-methylpyridin-2-yl)propan-1-one] | < 50 nM |
| COc1ccc(-c2nc(CCC(=O)c3ccccc3OCCF)co2)cc1OC(C)C [Example 275, 1-(2-fluoroethoxyphenyl)-3-[2-(3-isopropoxy-4-methoxyphenyl)oxazol-4-yl]propan-1-one] | < 50 nM |
| CCOc1ccccc1C(=O)CCc1coc(-c2ccc(OC)c(OCC(F)F)c2)n1 [Example 314, 3-{2-[3-(2,2-difluoroethoxy)-4-methoxyphenyl]oxazol-4-yl}-1-(2-ethoxyphenyl)propan-1-one] | < 50 nM |
| COc1ccc(-c2nc(CCC(=O)c3ccccc3OC(C)C)co2)cc1OCC1CC1 [Example 208, 3-[2-(3-cyclopropylmethoxy-4-methoxyphenyl)oxazol-4-yl]-1-(2-isopropoxyphenyl)propan-1-one] | < 50 nM |
| CCOc1ccccc1C(=O)CCc1coc(-c2ccc(OC)c(OCC(F)(F)F)c2)n1 [Example 112, 1-(2-ethoxyphenyl)-3-{2-[4-methoxy-3-(2,2,2-trifluoroethoxy)phenyl]oxazol-4-yl}propan-1-one] | < 50 nM |
| COc1ccc(-c2nc(CNC(=O)c3ncccc3C)co2)cc1OC1Cc2ccccc2C1 [Example 22, N-{2-[3-(indan-2-yloxy)-4-methoxyphenyl]oxazol-4-ylmethyl}-3-methylpicolinamide] | < 50 nM |
